According to patent US20220118104A1, “COMPOUNDS COMPRISING CLEAVABLE LINKER AND USES THEREOF” (IntoCell, Inc., priority 2019, published 2022):

Columns and labels:
E. coli β-galactosidase = biological target: T1, E. coli β-galactosidase (Escherichia coli, UniProt P00722); test: in vitro; format: biochemical; settings: PBS pH 7.4, 37° C., HPLC, read-out: TG release t1/2(min)
T1 construct: purchased Sigma G4155
Procedure: Compound A-1, A-2, or B-1 was dissolved in DMSO and mixed with PBS buffer solution to prepare 500 μM stock solution (1% DMSO). Methyl phenyl sulfone (MPS, CAS Number 3112-85-4, internal standard) was dissolved in PBS buffer solution to make 500 μM solution. 790 μL of PBS buffer (pH 7.4), 10 μL of the solution of compound A-1, A-2, or B-1 (500 μM) and 200 μL of MPS solution (500 μM) were mixed. Enzyme solution (E. coli β-galactosidase, Sigma G4155, 18 μL of 1 mg/mL) was added to 882 μL of the reaction mixture. When comparing with human p-galactosidase, 116 μL of the enzyme solution (0.1 mg/mL) was added, and solutions of compound A-1, A-2, or B-1 (140 μL), MPS (140 μL), and the buffer solution (533 μL, pH 7.4) were mixed.
The reaction mixture was incubated at 37° C. The enzyme reaction solution was aliquoted at 0 min before the reaction and at a predetermined time after the reaction, wherein each aliquot was 70 μL. The remaining compound A-1, A-2, or B-1, MPS, and the material liberated by the enzyme reaction were quantitatively analyzed by HPLC.

NCI-N87 cancer cells = test: Cell cytotoxicity of conjugates (MTT), NCI-N87; format: cell-based; settings: NCI-N87, 72 hours of incubation
Procedure: (§1) NCI-N87, SK-BR3 cancer cells were seeded in 96-well plates at a density of 5,000 cells per well in 100 μL of medium, and cultured for 24 hours. The eight compounds obtained in Example 55 and T-DM1 were treated by serial dilutions of 1:5 from 50 nM to 0.000128 nM. After 72 hours of incubation, 0.2 mL of 3-(4,5-dimethylthiazol-2-yl)-2,5-diphenyltetrazolium bromide (MTT) dye, dissolved in PBS buffer solution (5 mg/mL), was added to each well of the plates. The formazans formed by reduction of the MTT dye by mitochondrial oxidoreductases in the living cells were dissolved in DMSO, and measured using the absorbance at 550 nm.

SK-BR3 cancer cells = test: Cell cytotoxicity of conjugates (MTT), SK-BR3; format: cell-based; settings: SK-BR3, 72 hours of incubation
Procedure: as §1

T1 sequence (P00722 2-1024): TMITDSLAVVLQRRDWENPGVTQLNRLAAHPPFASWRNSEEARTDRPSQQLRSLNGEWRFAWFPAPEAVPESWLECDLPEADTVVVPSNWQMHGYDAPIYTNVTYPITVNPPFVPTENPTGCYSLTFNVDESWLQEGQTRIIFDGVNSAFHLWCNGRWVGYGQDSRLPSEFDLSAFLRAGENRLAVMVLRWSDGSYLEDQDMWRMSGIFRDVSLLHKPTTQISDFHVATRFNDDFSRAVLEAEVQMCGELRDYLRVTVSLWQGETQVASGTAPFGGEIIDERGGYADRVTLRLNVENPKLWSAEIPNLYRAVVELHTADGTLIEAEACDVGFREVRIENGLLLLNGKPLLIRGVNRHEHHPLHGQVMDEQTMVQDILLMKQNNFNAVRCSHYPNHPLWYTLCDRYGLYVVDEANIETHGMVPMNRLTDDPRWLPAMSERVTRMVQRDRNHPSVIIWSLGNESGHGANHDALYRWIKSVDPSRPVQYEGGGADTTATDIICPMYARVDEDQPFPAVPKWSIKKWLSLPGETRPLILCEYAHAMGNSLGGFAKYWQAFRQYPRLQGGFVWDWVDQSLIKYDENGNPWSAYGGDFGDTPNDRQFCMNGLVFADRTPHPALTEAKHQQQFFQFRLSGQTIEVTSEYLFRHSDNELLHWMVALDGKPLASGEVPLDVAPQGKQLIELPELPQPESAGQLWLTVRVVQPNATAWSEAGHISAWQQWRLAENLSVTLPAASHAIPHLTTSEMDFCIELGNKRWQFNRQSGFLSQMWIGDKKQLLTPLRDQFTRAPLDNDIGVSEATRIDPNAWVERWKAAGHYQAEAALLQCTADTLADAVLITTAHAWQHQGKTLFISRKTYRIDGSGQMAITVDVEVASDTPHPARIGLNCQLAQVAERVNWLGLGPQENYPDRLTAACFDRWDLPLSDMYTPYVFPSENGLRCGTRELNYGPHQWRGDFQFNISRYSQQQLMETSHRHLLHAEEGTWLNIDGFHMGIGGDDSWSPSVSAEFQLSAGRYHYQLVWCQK

Compound	half-life at 4.9 μM (E. coli β-galactosidase) [min]	IC50 (NCI-N87 cancer cells) [nM]	IC50 (SK-BR3 cancer cells) [nM]
CNC(=O)[C@H](Cc1ccc(OS(=O)(=O)Cc2ccc(OC3O[C@H](CO)[C@H](O)[C@H](O)[C@H]3O)cc2)cc1)NC(=O)OC(C)(C)C (some centres unmarked) [Compound A-1]	< 5		
CNC(=O)[C@H](Cc1ccc(OS(=O)(=O)Cc2ccc(OC3O[C@H](CO)[C@H](O)[C@H](O)[C@H]3O)c(C(=O)NCCOCCOCCOCCN=[N+]=[N-])c2)cc1)NC(=O)OC(C)(C)C (some centres unmarked) [Compound A-2]	< 10		
C[N+]1(Cc2ccc(OS(=O)(=O)Cc3ccc(OC4O[C@H](CO)[C@H](O)[C@H](O)[C@H]4O)cc3)cc2)CCCC[C@@H]1C(=O)Nc1ccccc1 (some centres unmarked) [Compound B-1]	< 5		
T-DM1		0.766	0.042
